Where two headings read alike, the source gives them in different places.
Key:
CSNK2A1 = target: T1, CSNK2A1 (Homo sapiens, UniProt P68400); assay: NanoBRET in-cell target engagement in HEK293T cells: CSNK2A1; format: cell-based
T1 construct: full-length PKN3, CSNK2A1 or CSNK2A2 ORF; host or cells: HEK293T
Procedure: The NanoBRET assay was performed as described previously[28],[58]. In brief, full-length PKN3, CSNK2A1 or CSNK2A2 ORF (PKN3 vector was a kind gift of Promega, Vectors for […]: NV2981, NV1191) cloned in frame with a C-terminal NanoLuc-fusion, respectively, were transfected into HEK293T cells using FuGENE HD (Promega, E2312) and proteins were allowed to express for 20 h. Serially diluted inhibitor and NanoBRET Kinase Tracer K5 (Promega, N2530) at 500 nM (PKN3) or NanoBRET Kinase Tracer K10 (Promega, N2840) at 500 nM ([…]) were pipetted into 384-well plates using an Echo acoustic dispenser (Labcyte). The PKN3, CSNK2A1 or CSNK2A2 transfected cells were added at a density of 2 × 10^5 cells per ml after trypsinization and resuspending in Opti-MEM without phenol red (Life Technologies). The system was allowed to equilibrate for 2 h at 37 °C and 5% CO2 before BRET measurements. BRET signaling was measured by adding NanoBRET NanoGlo Substrate and Extracellular NanoLuc Inhibitor (Promega) according to the manufacturer’s protocol. Filtered luminescence was measured on a PHERAstar plate reader (BMG Labtech) equipped with a luminescence filter pair (450 nm BP filter (donor) and 610 LP filter (acceptor)). Competitive displacement data were then graphed using GraphPad Prism software (v.5.01) using a three-parameter curve fit with the following equation Y=bottom+(top−bottom)/1+10^logIC50−X×hillslope
Experiments were performed with at least two biological and two technical replicates.

EPHB2 = target: T2, EPHB2 (Homo sapiens, UniProt P29323); assay: Kinobeads two-dose competition binding: EPHB2; details: read-out: Lestaurtinib Drugmatrix value, Gene Name EPHB2
T2 construct: endogenous in cells
T2 sequence (P29323 19-1055): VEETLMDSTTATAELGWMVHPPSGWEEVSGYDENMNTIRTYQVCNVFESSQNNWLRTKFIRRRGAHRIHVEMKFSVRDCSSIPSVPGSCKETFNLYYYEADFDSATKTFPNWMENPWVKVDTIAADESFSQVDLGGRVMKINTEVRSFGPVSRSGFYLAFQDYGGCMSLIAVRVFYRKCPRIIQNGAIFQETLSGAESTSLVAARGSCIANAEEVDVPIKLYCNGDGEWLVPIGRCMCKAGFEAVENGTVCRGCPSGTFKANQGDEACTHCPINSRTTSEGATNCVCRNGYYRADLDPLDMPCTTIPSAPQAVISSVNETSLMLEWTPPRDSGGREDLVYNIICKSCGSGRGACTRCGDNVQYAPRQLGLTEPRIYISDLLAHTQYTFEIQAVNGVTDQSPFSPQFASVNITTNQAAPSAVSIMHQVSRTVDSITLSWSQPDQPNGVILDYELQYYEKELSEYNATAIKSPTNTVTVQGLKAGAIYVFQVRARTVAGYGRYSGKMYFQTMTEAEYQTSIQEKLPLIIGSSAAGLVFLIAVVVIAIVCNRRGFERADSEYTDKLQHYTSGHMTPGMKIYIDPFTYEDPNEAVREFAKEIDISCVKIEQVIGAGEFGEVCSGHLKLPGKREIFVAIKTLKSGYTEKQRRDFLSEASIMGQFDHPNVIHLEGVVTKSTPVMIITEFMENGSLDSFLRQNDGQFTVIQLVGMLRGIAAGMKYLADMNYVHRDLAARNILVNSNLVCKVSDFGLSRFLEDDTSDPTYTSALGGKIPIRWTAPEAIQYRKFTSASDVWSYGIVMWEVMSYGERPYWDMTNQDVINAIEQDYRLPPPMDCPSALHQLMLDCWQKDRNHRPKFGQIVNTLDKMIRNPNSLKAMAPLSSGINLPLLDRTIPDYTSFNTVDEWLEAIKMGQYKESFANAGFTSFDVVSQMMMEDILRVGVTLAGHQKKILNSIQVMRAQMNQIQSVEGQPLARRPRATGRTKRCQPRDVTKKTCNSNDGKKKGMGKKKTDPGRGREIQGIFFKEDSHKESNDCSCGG

EPHB3 = target: T3, EPHB3 (Homo sapiens, UniProt P54753); assay: Kinobeads two-dose competition binding: EPHB3; details: read-out: Lestaurtinib Drugmatrix value, Gene Name EPHB3
T3 construct: endogenous in cells
T3 sequence (P54753 34-998): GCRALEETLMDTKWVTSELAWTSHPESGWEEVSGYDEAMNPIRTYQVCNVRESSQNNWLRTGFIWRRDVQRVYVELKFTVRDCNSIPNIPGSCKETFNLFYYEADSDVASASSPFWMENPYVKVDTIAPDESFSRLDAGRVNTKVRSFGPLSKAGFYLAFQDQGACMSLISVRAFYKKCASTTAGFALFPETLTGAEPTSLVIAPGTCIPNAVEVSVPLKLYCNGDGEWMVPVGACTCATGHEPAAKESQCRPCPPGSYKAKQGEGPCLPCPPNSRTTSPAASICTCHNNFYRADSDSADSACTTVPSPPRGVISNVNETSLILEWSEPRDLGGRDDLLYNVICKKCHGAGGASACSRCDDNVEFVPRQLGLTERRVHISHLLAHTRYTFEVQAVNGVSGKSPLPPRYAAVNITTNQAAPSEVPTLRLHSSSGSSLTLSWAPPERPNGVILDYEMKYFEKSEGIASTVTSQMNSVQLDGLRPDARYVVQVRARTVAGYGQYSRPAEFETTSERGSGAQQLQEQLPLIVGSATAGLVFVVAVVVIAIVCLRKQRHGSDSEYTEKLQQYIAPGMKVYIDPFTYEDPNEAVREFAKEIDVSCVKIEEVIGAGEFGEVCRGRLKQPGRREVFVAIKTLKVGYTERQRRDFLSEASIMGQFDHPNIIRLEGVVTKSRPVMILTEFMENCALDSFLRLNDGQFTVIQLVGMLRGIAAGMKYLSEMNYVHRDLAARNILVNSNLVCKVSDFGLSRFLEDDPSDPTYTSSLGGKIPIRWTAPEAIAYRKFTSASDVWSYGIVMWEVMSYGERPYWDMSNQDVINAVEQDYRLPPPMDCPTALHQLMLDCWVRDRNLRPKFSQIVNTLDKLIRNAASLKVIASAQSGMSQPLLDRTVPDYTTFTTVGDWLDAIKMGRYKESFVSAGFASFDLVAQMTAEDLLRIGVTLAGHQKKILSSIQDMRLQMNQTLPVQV

T1 sequence (P68400 whole entry): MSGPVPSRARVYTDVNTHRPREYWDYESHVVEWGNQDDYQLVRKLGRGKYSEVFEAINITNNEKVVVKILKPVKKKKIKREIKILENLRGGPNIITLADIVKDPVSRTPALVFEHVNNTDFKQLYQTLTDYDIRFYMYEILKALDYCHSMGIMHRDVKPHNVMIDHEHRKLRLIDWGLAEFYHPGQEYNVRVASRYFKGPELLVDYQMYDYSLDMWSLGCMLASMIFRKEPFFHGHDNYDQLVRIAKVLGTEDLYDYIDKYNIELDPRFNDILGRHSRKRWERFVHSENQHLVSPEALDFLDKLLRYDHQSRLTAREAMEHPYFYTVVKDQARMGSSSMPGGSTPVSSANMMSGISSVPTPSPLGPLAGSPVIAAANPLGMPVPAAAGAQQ

SMILES	IC50 (CSNK2A1; CSNK2A1, replicate 1, read-out: NanoBRET Rep1) [nM]	IC50 (CSNK2A1; CSNK2A1, replicate 2, read-out: NanoBRET Rep2) [nM]	IC50 (CSNK2A1; HEK293T cells, in-cell target engagement, read-out: IC50 CSNK2A1 NanoBRET) [nM]	potency estimated from few doses (EPHB2) [nM]	potency estimated from few doses (EPHB3) [nM]
COc1cc(Nc2ncc3c(C)nc(-c4cc5ccccc5[nH]4)n3n2)cc(OC)c1OC [GW869516X]	471	421	446	–	–
C[C@]12O[C@H](C[C@]1(O)CO)n1c3ccccc3c3c4c(c5c6ccccc6n2c5c31)CNC4=O [Lestaurtinib]	–	–	–	257	780

— PMC11062922 (Nature Chemical Biology, 2023)
